Reference: ChEMBL document CHEMBL1649141, “Synthesis and antimalarial activities of cyclen 4-aminoquinoline analogs” (Antimicrob Agents Chemother, 2009)
Calls of active or inactive are those of the source. No cut-off for these calls is given here.

How the values were obtained:
[1] = tested on: Plasmodium falciparum; assay: Antimalarial activity against chloroquine-resistant Plasmodium falciparum W2 after 72 hrs; format: functional, organism-based; conditions: W2, 72 h
[2] = tested on: Plasmodium falciparum; assay: Antimalarial activity against chloroquine-sensitive Plasmodium falciparum D6 after 72 hrs; format: functional, organism-based; conditions: D6, 72 h
[3] = tested on: Vero; assay: Cytotoxicity against african green monkey Vero cells upto 10 uM after 72 hrs; format: cell-based; conditions: chlorocebus sabaeus
[4] = Selectivity index, ratio of IC50 for african green monkey Vero cells to IC50 for chloroquine-sensitive Plasmodium falciparum D6; format: toxicity, cell-based; conditions: read-out: Selectivity Index
[5] = Selectivity index, ratio of IC50 for african green monkey Vero cells to IC50 for chloroquine-resistant Plasmodium falciparum W2; format: toxicity, cell-based; conditions: read-out: Selectivity Index
[6] = tested on: Plasmodium falciparum; assay: Antimalarial activity against chloroquine-resistant Plasmodium falciparum W2 assessed as [3H]hypoxanthine incorporation; format: functional, organism-based
[7] = tested on: Plasmodium falciparum; assay: Antimalarial activity against […]-resistant Plasmodium falciparum TM91C235 assessed as [3H]hypoxanthine incorporation; format: functional, organism-based
[8] = tested on: Plasmodium falciparum; assay: Antimalarial activity against chloroquine-sensitive Plasmodium falciparum D6 assessed as [3H]hypoxanthine incorporation; format: functional, organism-based
[9] = Inhibition of beta-hematin formation after 14 hrs by spectrophotometry; format: functional
[10] = tested on: Plasmodium berghei; assay: Antimalarial activity against Plasmodium berghei NK-65 infected in Swiss Webster mouse assessed as suppression of parasitemia at 1.1 mg/kg, ip QD for 3 days administered 2 hrs post infection measured on day 5; format: functional; conditions: route intraperitoneal
[11] = tested on: Plasmodium berghei; assay: Antimalarial activity against Plasmodium berghei NK-65 infected in Swiss Webster mouse assessed as suppression of parasitemia at 1.1 mg/kg, ip QD for 3 days administered 2 hrs post infection measured on day 7; format: functional; conditions: route intraperitoneal
[12] = tested on: Plasmodium berghei; assay: Antimalarial activity against Plasmodium berghei NK-65 infected in Swiss Webster mouse assessed as suppression of parasitemia at 1.1 mg/kg, ip QD for 3 days administered 2 hrs post infection measured on day 10; format: functional; conditions: route intraperitoneal
[13] = tested on: Plasmodium berghei; assay: Antimalarial activity against Plasmodium berghei NK-65 infected in Swiss Webster mouse assessed as suppression of parasitemia at 3.3 mg/kg, ip QD for 3 days administered 2 hrs post infection measured on day 5; format: functional; conditions: route intraperitoneal
[14] = tested on: Plasmodium berghei; assay: Antimalarial activity against Plasmodium berghei NK-65 infected in Swiss Webster mouse assessed as suppression of parasitemia at 3.3 mg/kg, ip QD for 3 days administered 2 hrs post infection measured on day 7; format: functional; conditions: route intraperitoneal
[15] = tested on: Plasmodium berghei; assay: Antimalarial activity against Plasmodium berghei NK-65 infected in Swiss Webster mouse assessed as suppression of parasitemia at 3.3 mg/kg, ip QD for 3 days administered 2 hrs post infection measured on day 10; format: functional; conditions: route intraperitoneal
[16] = tested on: Plasmodium berghei; assay: Antimalarial activity against Plasmodium berghei NK-65 infected in Swiss Webster mouse assessed as suppression of parasitemia at 10 mg/kg, ip QD for 3 days administered 2 hrs post infection measured on day 5; format: functional; conditions: route intraperitoneal
[17] = tested on: Plasmodium berghei; assay: Antimalarial activity against Plasmodium berghei NK-65 infected in Swiss Webster mouse assessed as suppression of parasitemia at 10 mg/kg, ip QD for 3 days administered 2 hrs post infection measured on day 7; format: functional; conditions: route intraperitoneal
[18] = tested on: Plasmodium berghei; assay: Antimalarial activity against Plasmodium berghei NK-65 infected in Swiss Webster mouse assessed as suppression of parasitemia at 10 mg/kg, ip QD for 3 days administered 2 hrs post infection measured on day 10; format: functional; conditions: route intraperitoneal
[19] = tested on: Plasmodium berghei; assay: Antimalarial activity against Plasmodium berghei NK-65 infected in Swiss Webster mouse assessed as suppression of parasitemia at 30 mg/kg, ip QD for 3 days administered 2 hrs post infection measured on day 5; format: functional; conditions: route intraperitoneal
[20] = tested on: Plasmodium berghei; assay: Antimalarial activity against Plasmodium berghei NK-65 infected in Swiss Webster mouse assessed as suppression of parasitemia at 30 mg/kg, ip QD for 3 days administered 2 hrs post infection measured on day 7; format: functional; conditions: route intraperitoneal
[21] = tested on: Plasmodium berghei; assay: Antimalarial activity against Plasmodium berghei NK-65 infected in Swiss Webster mouse assessed as suppression of parasitemia at 30 mg/kg, ip QD for 3 days administered 2 hrs post infection measured on day 10; format: functional; conditions: route intraperitoneal
[22] = tested on: Plasmodium berghei; assay: Antimalarial activity against Plasmodium berghei NK-65 infected in Swiss Webster mouse assessed as mean survival time at 1.1 mg/kg, ip QD for 3 days administered 2 hrs post infection measured on day 28; format: functional; conditions: route intraperitoneal
[23] = tested on: Plasmodium berghei; assay: Antimalarial activity against Plasmodium berghei NK-65 infected in Swiss Webster mouse assessed as mean survival time at 3.3 mg/kg, ip QD for 3 days administered 2 hrs post infection; format: functional; conditions: route intraperitoneal
[24] = tested on: Plasmodium berghei; assay: Antimalarial activity against Plasmodium berghei NK-65 infected in Swiss Webster mouse assessed as mean survival time at 10 mg/kg, ip QD for 3 days administered 2 hrs post infection; format: functional; conditions: route intraperitoneal
[25] = tested on: Plasmodium berghei; assay: Antimalarial activity against Plasmodium berghei NK-65 infected in Swiss Webster mouse assessed as mean survival time at 30 mg/kg, ip QD for 3 days administered 2 hrs post infection; format: functional; conditions: route intraperitoneal
[26] = tested on: Plasmodium berghei; assay: Antimalarial activity against Plasmodium berghei NK-65 infected in Swiss Webster mouse assessed as cure from parasite infection at 1.1 mg/kg, ip QD for 3 days administered 2 hrs post infection measured after 28 days; format: functional, organism-based; parameters: dose 1.1 mg/kg
[27] = tested on: Plasmodium berghei; assay: Antimalarial activity against Plasmodium berghei NK-65 infected in Swiss Webster mouse assessed as cure from parasite infection at 3.3 mg/kg, ip QD for 3 days administered 2 hrs post infection measured on day 28; format: functional, organism-based; parameters: dose 3.3 mg/kg
[28] = tested on: Plasmodium berghei; assay: Antimalarial activity against Plasmodium berghei NK-65 infected in Swiss Webster mouse assessed as cure from parasite infection at 10 mg/kg, ip QD for 3 days administered 2 hrs post infection measured on day 28; format: functional, organism-based; parameters: dose 10 mg/kg
[29] = tested on: Plasmodium berghei; assay: Antimalarial activity against Plasmodium berghei NK-65 infected in Swiss Webster mouse assessed as cure from parasite infection at 30 mg/kg, ip QD for 3 days administered 2 hrs post infection measured on day 28; format: functional; conditions: route intraperitoneal
[30] = tested on: Mus musculus; assay: Toxicity in Plasmodium berghei NK-65 infected Swiss Webster mouse at 30 mg/kg, ip QD for 3 days; format: organism-based; parameters: dose 30 mg/kg, route intraperitoneal; conditions: in vivo, 72 h

| SMILES | IC50 [1] | IC50 [2] | Activity [3] | selectivity ratio [4] | selectivity ratio [5] | IC50 [6] | IC50 [7] | IC50 [9] | Activity [19] | Activity [20] | Activity [21] | Time [25] | Activity [29] | other results |
| --- | --- | --- | --- | --- | --- | --- | --- | --- | --- | --- | --- | --- | --- | --- |
| Br.Clc1ccc2c(N3CCNCCNCCNCC3)ccnc2c1 | 0.211 µM | 0.0648 µM | Non-toxic | > 154 | > 48 |  |  |  |  |  |  |  |  |  |
| C[C@@H]1CC[C@H]2[C@@H](C)C(=O)O[C@@H]3O[C@@]4(C)CC[C@@H]1[C@]32OO4 [ARTEMISININ] |  |  | Non-toxic |  |  |  |  |  |  |  |  |  |  |  |
| OC(c1cc(C(F)(F)F)nc2c(C(F)(F)F)cccc12)C1CCCCN1 (stereo not given) [MEFLOQUINE] |  |  |  |  |  | 0.0072 µM | 0.0558 µM |  |  |  |  |  |  |  |
| Clc1ccc2c(N3CCNCCN(c4ccnc5cc(Cl)ccc45)CCNCC3)ccnc2c1 | 0.0192 µM | 0.0075 µM | Non-toxic | > 1330 | > 521 | 0.0058 µM | 0.0025 µM | 1.1 µM | 100% | 100% | 100% | >28 days | 60% | IC50 [8]: 0.0041 µM; Activity [10]: 65.2%; Activity [11]: 33.3%; Activity [12]: 22.7%; Activity [13]: 84.6%; Activity [14]: 44.1%; Activity [15]: 43.9%; Activity [16]: 96.3%; Activity [17]: 59.7%; Activity [18]: 40.9%; Time [22]: 23.8 days; Time [23]: 22.8 days; Time [24]: 26.2 days; Activity [26]: inactive; Activity [27]: inactive; Activity [28]: inactive |
| CCN(CC)CCCC(C)Nc1ccnc2cc(Cl)ccc12 (stereo not given) [CHLOROQUINE] |  |  | Non-toxic |  |  |  |  | 9.5 µM | 100% | 100% | 100% | >28 days | 75% | Activity [30]: Non-toxic |
